In ChEMBL document CHEMBL5247598 (Eur J Med Chem, 2022):
Active and inactive are the calls of the source. No cut-off for these calls is given here.

Experiments:
NCI/ADR-RES [1] = assay: Reversal fold, ratio of doxorubicin IC50 to doxorubicin IC50 in presence of 10 uM test compound for reversal of P-gp-mediated multidrug resistance in human NCI-ADR-RES cells incubated for 48 hrs by MTT assay; assay type: functional
[2] = Cytotoxicity against human HEK293T cells assessed as reduction in cell viability incubated for 48 hrs by MTT assay; assay type: toxicity, cell-based, HEK-293T
NCI/ADR-RES [3] = assay: Antiproliferative activity against human multidrug resistant NCI-ADR-RES cells overexpressing P-gp assessed as reduction in cell viability incubated for 48 hrs by MTT assay; assay type: functional, cell-based
MCF7 [4] = assay: Antiproliferative activity against human MCF7 cells assessed as reduction in cell viability incubated for 48 hrs by MTT assay; assay type: functional, cell-based; conditions: MCF7, 48 h
A549/TR = assay: Antiproliferative activity against human Taxol resistant A549 cells assessed as inhibition of cell growth at 50 uM incubated for 48 hrs by MTT assay; assay type: functional, cell-based
MCF7 [5] = assay: Antiproliferative activity against human MCF7 cells assessed as inhibition of cell growth at 50 uM incubated for 48 hrs by MTT assay; assay type: functional, cell-based
NCI/ADR-RES [6] = assay: Reversal of P-gp-mediated multidrug resistance in human NCI-ADR-RES cells assessed as potentiation of doxorubicin-induced cytotoxicity incubated for 48 hrs by MTT assay; assay type: functional, cell-based
A549 = assay: Antiproliferative activity against human A549 cells assessed as inhibition of cell growth at 50 uM incubated for 48 hrs by MTT assay; assay type: functional, cell-based
NCI/ADR-RES [7] = assay: Antiproliferative activity against human multidrug resistant NCI-ADR-RES cells assessed as inhibition of cell growth at 50 uM incubated for 48 hrs by MTT assay; assay type: functional, cell-based
HCT-8 [8] = assay: Antiproliferative activity against human Taxol resistant HCT-8 cells assessed as inhibition of cell growth at 50 uM incubated for 48 hrs by MTT assay; assay type: functional, cell-based
HCT-8 [9] = assay: Antiproliferative activity against human HCT-8 cells assessed as inhibition of cell growth at 50 uM incubated for 48 hrs by MTT assay; assay type: functional, cell-based
HEK-293T [10] = assay: Cytotoxicity against human HEK293T cells assessed as inhibition of cell growth at 50 uM incubated for 48 hrs by MTT assay; assay type: toxicity, cell-based
HEK-293T [11] = assay: Cytotoxicity against human HEK293T cells assessed as cell survival rate at 10 uM incubated for 48 hrs by MTT assay; assay type: toxicity, cell-based
L02 = assay: Cytotoxicity against human L02 cells assessed as inhibition of cell growth at 50 uM incubated for 48 hrs by MTT assay; assay type: toxicity, cell-based; conditions: l02, 48 h
[12] = Cytotoxicity against mouse MPC-5 cells assessed as inhibition of cell growth at 50 uM incubated for 48 hrs by MTT assay; assay type: toxicity, cell-based; conditions: mpc-5, 48 h
P-gp = assay: Therapeutic index, ratio of IC50 for cytotoxicity against human HEK293T cells to EC50 for reversal of P-gp-mediated multidrug resistance in human NCI-ADR-RES cells; assay type: toxicity, cell-based; conditions: read-out: Ratio IC50/EC50

| IC50 (MCF7 [4]; read-out: IC50) | Compound | Ratio IC50 (NCI/ADR-RES [1]) | IC50 at 48 h [2] | IC50 (NCI/ADR-RES [3]) | other results |
| --- | --- | --- | --- | --- | --- |
| > 100 µM | C=C1[C@H](OC(C)=O)[C@@H](OC(=O)c2cccc(C)c2)[C@@H](OC(C)=O)C(C)(C)/C=C/[C@H](C)[C@H]2O[C@]3(C)C[C@@]2(OC(=O)c2ccccc2)[C@H]([C@H]3OC(C)=O)[C@H]1OCC(C)C | 8.9 | > 100 µM | > 100 µM | – |
| 74.3 µM | C=C1[C@H](OC(C)=O)[C@@H](OC(C)=O)[C@@H](OC(C)=O)C(C)(C)/C=C/[C@H](C)[C@H](OC(=O)c2ccccc2)[C@@]2(O)C[C@@](C)(OC(C)=O)[C@H](OC(C)=O)[C@@H]2[C@H]1OCC(C)C | 12.16 | 26.1 µM | > 100 µM | – |
| > 100 µM | C=C1[C@H](OCC(C)C)[C@@H](OC(C)=O)[C@@H](OC(C)=O)C(C)(C)[C@@H]2O[C@H]2[C@H](C)[C@H](OC(=O)c2ccccc2)[C@@]2(O)C[C@@](C)(OC(C)=O)[C@H](OC(C)=O)[C@@H]2[C@H]1OCC(C)C | 52.31 | 48.1 µM | > 100 µM | – |
| 63.8 µM | C=C1[C@H](O)[C@@H](OC(=O)c2cccc(C)c2)[C@@H](O)C(C)(C)/C=C/[C@H](C)[C@H](OC(=O)c2ccccc2)[C@@]2(O)C[C@@](C)(O)[C@H](OC(C)=O)[C@@H]2[C@H]1OCC(C)C | 7.66 | 31.3 µM | 75.2 µM | – |
| > 100 µM | C=C1[C@H](OCC(C)C)C2=C(C[C@@](C)(OC(C)=O)[C@@H]2OC(C)=O)[C@@H](OC(=O)c2ccccc2)[C@@H](C)/C=C/C(C)(C)[C@H](OC(C)=O)[C@H](OC(C)=O)[C@H]1OCC(C)C | 15.81 | > 100 µM | > 100 µM | – |
| > 100 µM | C=C1[C@H](OC(C)=O)[C@@H](OC(C)=O)[C@@H](O)C(C)(C)/C=C/[C@H](C)[C@H](OC(=O)c2ccccc2)[C@@]2(O)C[C@@](C)(O)[C@H](OC(C)=O)[C@@H]2[C@H]1OCC(C)C | – | > 100 µM | > 100 µM | – |
| 23.4 µM | C=C1[C@H](OC(C)=O)[C@@H](OC(=O)c2cccc(C)c2)[C@@H](OC(C)=O)C(C)(C)/C=C/[C@H](C)[C@H](OC(=O)c2ccccc2)[C@@]2(O)C[C@@](C)(O)[C@H](OC(C)=O)[C@@H]2[C@H]1OCC(C)C | 59.71 | 4.11 µM | > 100 µM | – |
| > 100 µM | C=C1[C@H](OC(C)=O)[C@@H](OC(=O)C(C)(C)C)[C@@H](OC(C)=O)C(C)(C)/C=C/[C@H](C)[C@H](OC(=O)c2ccccc2)[C@@]2(O)C[C@@](C)(O)[C@H](OC(C)=O)[C@@H]2[C@H]1OCC(C)C | 47.77 | 52.1 µM | > 100 µM | – |
| > 100 µM | C=C1[C@H](OCC(C)C)[C@@H](OC(C)=O)[C@@H](OC(C)=O)C(C)(C)/C=C/[C@H](C)[C@H](OC(=O)c2ccccc2)[C@@]2(O)C[C@@](C)(OC(C)=O)[C@H](OC(C)=O)[C@@H]2[C@H]1OCC(C)C | 10.64 | > 100 µM | > 100 µM | – |
| – | COc1ccc(CCN(C)CCCC(C#N)(c2ccc(OC)c(OC)c2)C(C)C)cc1OC (stereo not drawn) | – | 32 µM | > 100 µM | Activity (A549/TR): inactive; Activity (MCF7 [5]): inactive; EC50 (NCI/ADR-RES [6]): 322 nM; Activity (A549): inactive; Activity (NCI/ADR-RES [7]): inactive; IC50 (MCF7 [4]): 87.8 µM; Activity (HCT-8 [8]): inactive; Activity (HCT-8 [9]): inactive |
| > 100 µM | C=C1[C@H](OC(C)=O)[C@@H](OC(C)=O)[C@@H](OC(C)=O)C(C)(C)/C=C/[C@H](C)[C@H](OC(=O)c2ccccc2)[C@@]2(O)C[C@@](C)(OC(=O)c3cccc(C)c3)[C@H](OC(C)=O)[C@@H]2[C@H]1OCC(C)C | 38.74 | 7.22 µM | > 100 µM | – |
| 21.6 µM | C=C1[C@H](OC(=O)c2cccc(C)c2)[C@@H](O)[C@@H](O)C(C)(C)/C=C/[C@H](C)[C@H](OC(=O)c2ccccc2)[C@@]2(O)C[C@@](C)(O)[C@H](OC(C)=O)[C@@H]2[C@H]1OCC(C)C | 8.85 | 12 µM | 33.6 µM | – |
| 8.11 µM | COc1cc2c(cc1OC)CN(CCc1ccc(NC(=O)c3cc(OC)c(OC)cc3NC(=O)c3cnc4ccccc4c3)cc1)CC2 | 47.2 | 5.22 µM | 98.5 µM | Activity (A549/TR): Active; Activity (MCF7 [5]): Active; Activity (HEK-293T [10]): Toxic; EC50 (NCI/ADR-RES [6]): 18.7 nM; Activity (A549): Active; Activity (NCI/ADR-RES [7]): Active; Activity (HEK-293T [11]): Toxic; Activity (L02): Toxic; Activity [12]: Toxic; Activity (HCT-8 [8]): Active; Activity (HCT-8 [9]): Active; selectivity ratio (P-gp): 278 |
| > 100 µM | C=C1[C@H](OC(C)=O)[C@@H](OC(C)=O)[C@@H](OC(C)=O)C(C)(C)/C=C/[C@H](C)[C@H]2O[C@]3(C)C[C@@]2(OC(=O)c2ccccc2)[C@H]([C@H]3OC(C)=O)[C@H]1OCC(C)C | 34.3 | 13.5 µM | > 100 µM | – |
| > 100 µM | CC(=O)O[C@@H]1[C@@H]2[C@@H](OCC(C)C)C3(CO3)[C@H](O)[C@@H](O)[C@@H](O)C(C)(C)/C=C/[C@H](C)[C@H](OC(=O)c3ccccc3)[C@@]2(O)C[C@@]1(C)O (stereo partly drawn) | – | > 100 µM | > 100 µM | – |
| > 100 µM | C=C1[C@H](OC(C)=O)[C@@H](OC(=O)C(C)(C)C)[C@@H](OC(C)=O)C(C)(C)/C=C/[C@H](C)[C@H](OC(=O)c2ccccc2)[C@@]2(O)C[C@@](C)(OC(C)=O)[C@H](OC(C)=O)[C@@H]2[C@H]1OCC(C)C | 33.78 | 18.9 µM | > 100 µM | – |
| > 100 µM | C=C1[C@H](OC(C)=O)[C@@H](OC(C)=O)[C@@H](OC(C)=O)C(C)(C)/C=C/[C@H](C)[C@H](OC(=O)c2ccccc2)[C@@]2(O)C[C@@](C)(OC(=O)c3ccncc3)[C@H](OC(C)=O)[C@@H]2[C@H]1OCC(C)C | 89.33 | 19.5 µM | > 100 µM | – |
| 69.9 µM | C=C1[C@H](O)[C@@H](OC(=O)C(C)(C)C)[C@@H](O)C(C)(C)/C=C/[C@H](C)[C@H](OC(=O)c2ccccc2)[C@@]2(O)C[C@@](C)(O)[C@H](OC(C)=O)[C@@H]2[C@H]1OCC(C)C | 0.91 | 31.7 µM | > 100 µM | – |
| > 100 µM | C=C1[C@H](OC(C)=O)[C@@H](OC(C)=O)[C@@H](OC(C)=O)C(C)(C)/C=C/[C@H](C)[C@H](OC(=O)c2ccccc2)[C@@]2(O)C[C@@](C)(O)[C@H](OC(C)=O)[C@@H]2[C@H]1OCC(C)C | 4.49 | 39.3 µM | > 100 µM | – |
| > 100 µM | C=C1[C@H](OC(C)=O)[C@@H](OC(=O)C(C)(C)C)[C@@H](OC(C)=O)C(C)(C)/C=C/[C@H](C)[C@H]2O[C@]3(C)C[C@@]2(OC(=O)c2ccccc2)[C@H]([C@H]3OC(C)=O)[C@H]1OCC(C)C | 21.3 | > 100 µM | > 100 µM | – |
| > 100 µM | C=C1[C@H](OC(C)=O)[C@@H](OC(=O)c2cccc(C)c2)[C@@H](OC(C)=O)C(C)(C)/C=C/[C@H](C)[C@H](OC(=O)c2ccccc2)[C@@]2(O)C[C@@](C)(OC(C)=O)[C@H](OC(C)=O)[C@@H]2[C@H]1OCC(C)C | 30.48 | 7.6 µM | > 100 µM | – |
| > 100 µM | C=C1[C@H](O)[C@@H](O)[C@@H](O)C(C)(C)/C=C/[C@H](C)[C@H](OC(=O)c2ccccc2)[C@@]2(O)C[C@@](C)(O)[C@H](OC(C)=O)[C@@H]2[C@H]1OCC(C)C | – | > 100 µM | > 100 µM | – |
